Laboratory results: patent US6911318B2, “Bacterial transglycosylases: assays for monitoring the activity using Lipid II substrate analogs and methods for discovering new antibiotics” (The Trustees of Princeton University, priority 1999, dated 2005)

Tests used:
[1] = test system: transglycosylases; experiment: modified membrane assay of radiolabeled Lipid II polymerization; type: biochemical; details: increasing concentrations of ramoplanin; FIG. 9
From the text: Ramoplanin (FIG. 8) is a cyclic glycolipodepsipeptide antibiotic that kills gram positive bacteria by inhibiting cell wall biosynthesis. Ramoplanin blocks the conversion of Lipid I to Lipid II, a reaction that is catalyzed by the intracellular GlcNAc transferase. MurG. It is proposed that ramoplanin inhibits MurG by complexing Lipid I, which prevents it from being utilized as a substrate. Unexpectedly ramoplanin is shown by this inventor to inhibit the polymerization of Lipid II; therefore another mechanism is discovered by which ramoplanin can kill bacterial cells through inhibition of the transglycosylation step of peptidoglycan synthesis. Using a synthetic analogue of Lipid II, the evidence is presented that enzyme inhibition by ramoplanin involves substrate binding. Unexpectedly, the ramoplanin complexes are found to self-associate to form observable fibrils. The mechanism of action of ramoplanin has been investigated in the past in permeabilized bacterial cells and membrane preparations by following the incorporation of radiolabel from a precursor into various intermediates along the pathway to peptidoglycan. […] The effect of ramoplanin on Lipid II polymerization is evaluated by monitoring the amount of radioactive peptidoglycan formed in the presence of increasing concentrations of ramoplanin. […]

[2] = NMR and CD titration of ramoplanin with compound 2; type: binding; details: NMR
From the text: The ability of ramoplanin to interact with 2 is investigated by NMR (FIG. 10). Unexpectedly, titration of ramoplanin with compound 2 caused the ramoplanin signals to disappear. Resonances for free 2 began to appear at a 1:1 ramoplanin:2 ratio. The disappearance of the ramoplanin resonances connotes a change in relaxation properties consistent with the formation of a high molecular weight species. A striking increase in the viscosity of the ramoplanin samples is evident upon the addition of compound 2. In addition, electron micrographs of the ramoplanin complexes show long fibrils (not shown). Thus, ramoplanin undergoes a ligand-induced polymerization process in the presence of 2. Ligand-induced polymerization of ramoplanin complexes implies a conformational change in ramoplanin. Therefore, one would expect a significant change in the far UV CD spectrum of ramoplanin upon adding 2. In fact, the CD spectrum for ramoplanin changes dramatically upon titration with 2 (FIG. 11). The appearance of a minimum at ˜210 nm is consistent with a model in which assembly into fibrils is mediated by hydrogen bonds between amides in the ramoplanin complexes, and is all likelihood related to the unusual pattern of D and L amino acids in the molecule. […]

[3] = test system: transglycosylase present in bacterial membranes; experiment: in vitro polymerization of biotinylated-[14C]-Lipid II by bacterial membrane protein, ascending chromatography; type: biochemical; details: 0.06 μg/ml Moenomycin, FIG. 7
Description: FIG. 7 discloses in vitro polymerization of biotinylated-[^14C]-Lipid II accomplished by incubation with bacterial membrane protein, and product is detected by ascending chromatography in isobutyric acid:1M NH4OH (5:3).
In FIG. 7, biotinylated Lipid II serves as a substrate for transglycosylase present in bacterial membranes. Control: incubation of bacterial membranes with biotinylated Lipid II, which is also labeled with [^14C] […] It is thus clear that any other bacterial cell wall inhibitor can be equally screened.

Substance	effect on Lipid II polymerization (radioactive peptidoglycan formed) [1]	binding to Lipid II analogue [2]	formation of peptidoglycan from biotinylated [14C]-Lipid II [3]
Ramoplanin	blocks the polymerization of Lipid II	binds to a synthetic analogue of Lipid II	–
moenomycin	–	–	inhibits formation of peptidoglycan
